For 114 molecules, AC40 results are on record in PubChem BioAssay AID540258 (Broad Institute, 2011).

Active and inactive are the calls of the source.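 The calls were made as follows: active = fitted curve reaching 40% activation at or below the top valid dose tested; inconclusive = flat curve at 30 to 70% activation, or poor fit; inactive = the rest.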 A value given as a limit tells only on which side of the number the result lay.

This test concerns SK-MEL-5 TRPM1 promoter luciferase reporter, 24 h. The experiment in a line: MITF activators via TRPM1 promoter reporter, dose response, SK-MEL-5 cells, luciferase, cherry-pick samples (AID 540258).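 Also: potency for activators that raise TRPM1 promoter luciferase signal.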
Take `CC1CCN(C(=O)c2cc(-c3ccccc3O)on2)CC1`: the AC40 was 0.383 µM.
Next, `Cc1nn(-c2ccc(N3CCCCC3)nn2)c(C)c1CCC(=O)Nc1cccc(F)c1`: 3.23 µM; `CCCn1nnc(NC(=O)c2ccc(-c3ccccc3)cc2)n1`: 2.69 µM; `Cc1nc(N)sc1N=Nc1ccc(F)cc1`: 6.62 µM.
In the case of `COC(=O)c1ccc(-c2ccc(Cl)cc2)nc1C`, the AC40 was 0.475 µM.
The value for `COc1cc2sc3cc(NCC[C@@H]4CCCN4C)ccc3c(=O)c2cc1OC` was 5.18 µM; that for `CC(C)(C)c1ccc(C(=O)Nc2ccc(F)cc2)s1` was 0.374 µM.
The value for `Nc1ccc2cc3ccccc3cc2c1` was 2.88 µM; that for `Cc1cccc(-n2ncc3c(N4CC(C)CC(C)C4)ncnc32)c1` (centres undefined) was 0.749 µM; that for `CCCCN1C(=O)/C(=C/C=C2\SCCN2C)SC1=S` was 5.57 µM.
Next, `Cc1csc2nc(CSc3nc4ccccc4o3)c(Br)n12`: 1.35 µM; `Cc1cccc(-c2cc(N)n(-c3ccccc3)n2)c1`: 0.712 µM; `C/C(=N\OC(=O)Nc1ccccc1)c1ccc(C)cc1`: 3.45 µM.
Regarding `CN1C(=O)C2C=CC1C1C(=O)N(c3ccccc3)C(=O)C21` (centres undefined), the AC40 is 1.89 µM.
On to `Cc1nc(SCc2ccccc2)nc2c1CCC2`, for which the AC40 is 2.58 µM.
The value for `c1ccc(-c2ccc3sccc3n2)cc1` was 1.52 µM; that for `CC(=O)N/C(N)=N/c1nc(=O)c2ccccc2s1` was 5.92 µM.
The value for `COc1ccc(NC(=O)Nc2ccc(Br)cn2)cc1` was 3.15 µM.
Next, `COc1ccc2cc(C(=O)NCCc3ccccc3)[nH]c2c1`: 11.6 µM.
For `COc1ccc(NC(C)=O)cc1S(=O)(=O)Nc1ccccc1C(=O)NCCc1ccccc1`, the AC40 was > 35 µM (inactive).
As for `C=CCC1(CC=C)CCCN1C(=O)C1CCC(=O)N(CCc2ccccc2)C1` (centres undefined), the AC40 is 7.52 µM.
In the case of `COc1ccc2cc(CCNC(=O)c3cccs3)c(=O)[nH]c2c1`, the AC40 was 1.95 µM.
Next, `CCCCN1CCc2c([nH]c3c(C)cccc23)C1=O`: > 35 µM (inactive).
The value for `C=CCNc1nc(-c2ccc(Cl)cc2)cs1` was 0.639 µM.
Next, `Cc1ccc(N2NC(C)(c3cccs3)NC2=S)cc1` (centres undefined): 1.42 µM.
Consider `O=C(NCCc1cccs1)c1ccc(Cl)c(Cl)c1`, for which the AC40 was 3.47 µM.
With `N/C(=N\OC(=O)C1CCCCC1)c1cccc(Br)c1`, the AC40 is 13.5 µM.
As for `CNC(=O)c1ccc(-c2cc3onc(-c4ccccc4)c3c(=O)n2C)cc1`, the AC40 is 6.96 µM.
With `COc1cccc(NC(=O)Nc2ccc3c(c2)nnn3C)c1`, the AC40 was 4.88 µM.
Next, `CCCCNC(=O)c1cc2ccccc2s1`: 31 µM; `CCS(=O)(=O)N1Cc2ccccc2CC1C(=O)NCc1cccc(OC)c1` (centres undefined): > 35 µM (inactive).
The value for `COc1ccc(C(=O)c2c[nH]c3ccccc23)cc1` was 2.64 µM.
For `Cc1cccc(C(=O)Nc2ccn(C)n2)c1`, the AC40 is 24.4 µM.
The value for `Cc1cccc(-c2nnc3sc(-c4ccccc4)nn23)c1` was 12.2 µM.
For the molecule `CC(=O)N1N=C(c2ccc(C)cc2)OC1c1ccc(Br)cc1` (centres undefined), the AC40 was 2.83 µM.
The value for `C=CCn1cnc2c(nnn2-c2ccc(C)c(C)c2)c1=O` was 11.9 µM.
Next, `Clc1ccc(-c2cn3c(n2)CCC3)cc1`: > 35 µM (inactive); `COc1ccccc1N1CCN(/N=C/c2cccc(Cl)c2)CC1`: 1.45 µM; `Cc1nn(-c2ccccn2)c2c1-c1nc(N)ncc1CC2`: 2.38 µM.
The value for `CC(C)Nc1cc(C(C)(C)C)nc2c(-c3ccccc3)cnn12` was 8.53 µM.
For the molecule `COc1ccc(-c2cc3nc4ccccc4n3c(N)c2C#N)cc1`, the AC40 is 1.83 µM.
The value for `COC(=O)Cc1ccc(OCc2ccc(Cl)nc2)cc1` was 4.13 µM; that for `CCCc1ccc(OCc2nc(-c3ccc(NC(=O)c4cccs4)cc3)no2)cc1` was 14.2 µM; that for `CC1(C)CNC(=O)c2sc(NC(=O)c3ccccc3)nc2C1` was 21.9 µM.
The value for `Cc1ccc(N2C(=O)S/C(=C/c3cn(C)c4ccccc34)C2=O)cc1` was 6.5 µM.
Take `NC(=O)c1ccc(-c2noc(-c3cccc(Cl)c3)n2)cc1`: the AC40 was 3.8 µM.
Next, `COc1cccc(C(=O)Nc2nnc(-c3ccccc3)s2)c1`: 3.57 µM; `Cc1ccc(Nc2ncc3c(n2)CC(C)(C)CC3=O)cc1`: 0.65 µM; `CC(=O)c1ccc(N2Cc3ccccc3C2=NC(=O)c2cccs2)cc1`: 24.6 µM.
Next, `CC(C)c1ccc(NC(=O)Cn2ncc3ccccc32)cc1`: 6.86 µM; `O=C(OCc1csc(-c2ccccc2)n1)c1ccc(O)cc1`: 7.95 µM; `Cc1ccsc1CCNC(=O)C1CCC(=O)N(CCc2cccc(F)c2)C1` (centres undefined): 6.83 µM.
The value for `COc1ccc(-c2ccc3ccccc3n2)cc1OC` was 1.38 µM; that for `Cc1ccc(CSc2ccc(-c3cccs3)nn2)cc1` was 2.71 µM; that for `CC(C)c1ccc(NC(=O)c2snc3ccc(Cl)cc23)cc1` was 1.11 µM.
In the case of `Cc1snc2sc(C(=O)c3ccc(Br)cc3)c(N)c12`, the AC40 was 1.48 µM.
The value for `O=C(NCCc1ccccc1)c1nccc2ccccc12` was 19.2 µM; that for `CC1CCN(c2oc(-c3ccccc3Cl)nc2C#N)CC1` was 10.9 µM.
Next, `Cc1ccccc1-c1nc2cc(Cl)ccc2o1`: 8.56 µM; `Cc1ccc(NC(=O)Nc2ccc3c(c2)OCO3)c(OC(F)F)c1`: 2.14 µM.
The value for `Nc1ccc(N=Nc2ccccc2)c(N)n1` was 14.7 µM.
For the molecule `CC(=O)Nc1nnc(COc2ccc(Cl)cc2)s1`, the AC40 was 3.16 µM.
Next, `COc1cccc(C2Nc3ccccc3C(=O)N2c2ccc(F)cc2)c1O` (centres undefined): 23.8 µM; `Cc1ccc(Nc2nc(Cl)nc(NC(C)(C)C)n2)cc1`: 3.69 µM; `CC(C)Nc1oc(-c2cccc3ccccc23)nc1C#N`: 9.14 µM.
The value for `COc1ccc2sc(NCc3ccccc3)nc2c1` was 1.98 µM; that for `COC(=O)Cc1csc(Nc2ccccc2Cl)n1` was 6.3 µM.
Regarding `Cc1cc(Cl)ccc1OCc1cn2cccnc2n1`, the AC40 was 1.41 µM.
The value for `Cc1ccccc1S(=O)(=O)Oc1ccc2ccc(O)cc2c1` was 25.7 µM.
The value for `Cc1ccc(NC(=O)N2CCc3ccccc3C2)cc1C` was 4.47 µM; that for `Oc1ccc(-c2nccc(-c3ccccn3)n2)cc1` was 4.35 µM.
The value for `COc1ccc(N2C(=O)c3ccccc3NC23CCCCC3)cc1` was 1.62 µM; that for `Cc1ccc(-c2csc(NC(=O)c3ccc(Br)cc3)c2C(=O)O)cc1` was 6.1 µM.
In the case of `Cc1ccc(CNc2ccc3c(c2)ncn3C(C)C)cc1`, the AC40 was 2.63 µM.
Next, `O=C(CCCc1ccccc1)c1ccccc1`: 0.326 µM.
Next, `O=C(Nc1cccc(F)c1)NC1CCCCCCC1`: 6.52 µM.
On to `CCc1ccc(OC(=O)Nc2ccccc2)cc1`, for which the AC40 was 0.469 µM.
Next, `CSc1nccc(N/N=C/c2ccccc2)n1`: 0.491 µM; `CCCCN(C(=O)Cc1cccs1)c1nnc(-c2cccnc2)s1`: 5.05 µM.
In the case of `COc1ccc(C2Nc3ccccc3C(=O)N2c2ccc(C)cc2)cc1Cn1nnc2ccccc21` (centres undefined), the AC40 was 17.2 µM.
Regarding `O=C(c1noc2c1CCCC2)N1CCc2ccccc2C1`, the AC40 was 5.97 µM.
The value for `COc1ccc2[nH]c(-c3ccccc3)cc2c1` was 0.977 µM.
Next, `Fc1ccc2nc(N3CCCC3)sc2c1`: 1.37 µM; `O=S(=O)(c1cccs1)N1CCCc2cccc(O)c21`: 7.11 µM.
The value for `CCCSc1ccc(C(=O)Nc2ccc(F)cc2F)cn1` was 27.2 µM; that for `Nc1ccc(CSc2ccc(Cl)cc2)c(Cl)c1` was 1.98 µM; that for `Cc1ccccc1-c1nc(Cc2ccccc2)no1` was 2.78 µM.
As to `CCCn1ncc2c(Nc3ccc(C)c(C)c3)ncnc21`, the AC40 is 4.16 µM.
The value for `CC(C)c1ccc2nc(N)sc2c1` was > 35 µM (inactive); that for `Oc1cccc(-c2nc3ccc4ccccc4c3c3c2CCC3)c1` was 3.02 µM.
The value for `c1cc(-c2cc3cc4c(cc3cn2)OCO4)cs1` was 2.12 µM.
For `O=C(N=Nc1c(O)n(Cc2ccccc2)c2ccccc12)c1ccc(O)cc1`, the AC40 is 0.86 µM.
Regarding `COc1ccc2c(c1OC)C(=O)N1c3ccccc3COC21` (centres undefined), the AC40 was 0.955 µM.
Next, `CSc1nc2ccc(NC(=O)c3cccs3)cc2s1`: 2.16 µM; `O=C1C(=O)N(c2ccccc2)P(=O)(N(CCCl)CCCl)N1c1ccccc1`: 16.1 µM; `O=C(CNc1cccc(F)c1)N1CCc2ccccc2C1`: 4.43 µM.
Next, `CCc1nc2oc3ccccc3c(=O)c2cc1C(=O)OC`: 5.7 µM; `CN(CCC#N)C(=O)c1cc2c(s1)-c1ccccc1SC2`: 3.23 µM; `Cc1ccc2cc(NC(=O)c3ccccc3C)ccc2n1`: 1.69 µM.
For `Cc1ccc(Nc2nnc(-c3ccccc3N)o2)cc1C`, the AC40 was 1.59 µM.
Next, `COc1ccc(OCc2cc(C(=O)NC(C)c3cnn(C)c3)no2)c(Cl)c1` (centres undefined): 12.3 µM.
Next, `COc1ccc(-c2csc(N(C)C(=O)c3cccs3)n2)cc1`: 6.73 µM; `CSc1ccccc1OCc1cc(C(=O)N[C@H]2CCCCNC2=O)no1`: 2.22 µM.
Next, `O=C(N/N=C/c1ccc(Cl)cc1Cl)c1cccc(F)c1`: 1.95 µM; `c1cnc2nc(-c3ccc4c(c3)OCO4)cn2c1`: 13.7 µM; `Cc1ccc(-n2nnc3ccccc3c2=O)cc1C`: 2.62 µM.
Turning to `c1cncc(-c2nc3ccccc3s2)c1`, the AC40 is 3.8 µM.
The value for `CSc1ccc(-c2nnn(Cc3ccc(C)cc3)n2)cc1` was 5.08 µM; that for `c1ccc(C2=NN(c3ccccc3)CC2)cc1` was 1.69 µM.
Next, `CCCN1C(=O)C(=O)N(CC(=O)c2cc(C)n(C3CC3)c2C)C1=O`: 24.8 µM.
Next, `CCCCn1cnc2sc(-c3ccccc3)cc2c1=O`: 0.812 µM; `CCNc1nc(N)nc(Oc2ccc(C(=O)OC)cc2)n1`: 3.64 µM; `Cc1nc(C(C)NC(=O)CCc2nnc(CCCc3ccccc3)o2)c(C)s1` (centres undefined): 3.83 µM.
`Cc1nc2ccccc2nc(=O)c1NNc1ccccc1`: the AC40 is 3.99 µM.
